{"source": "patent US10794932B2", "about": "“Biosensor for the detection of a biological target, and method for manufacturing the same” (The Governing Council of The University of Toronto, priority 2016, dated 2020)", "key": {"[1]": {"biological_target": "T1, TLR2 (Mus musculus, UniProt Q9QUN7)", "T1 sequence (Q9QUN7 25-587)": "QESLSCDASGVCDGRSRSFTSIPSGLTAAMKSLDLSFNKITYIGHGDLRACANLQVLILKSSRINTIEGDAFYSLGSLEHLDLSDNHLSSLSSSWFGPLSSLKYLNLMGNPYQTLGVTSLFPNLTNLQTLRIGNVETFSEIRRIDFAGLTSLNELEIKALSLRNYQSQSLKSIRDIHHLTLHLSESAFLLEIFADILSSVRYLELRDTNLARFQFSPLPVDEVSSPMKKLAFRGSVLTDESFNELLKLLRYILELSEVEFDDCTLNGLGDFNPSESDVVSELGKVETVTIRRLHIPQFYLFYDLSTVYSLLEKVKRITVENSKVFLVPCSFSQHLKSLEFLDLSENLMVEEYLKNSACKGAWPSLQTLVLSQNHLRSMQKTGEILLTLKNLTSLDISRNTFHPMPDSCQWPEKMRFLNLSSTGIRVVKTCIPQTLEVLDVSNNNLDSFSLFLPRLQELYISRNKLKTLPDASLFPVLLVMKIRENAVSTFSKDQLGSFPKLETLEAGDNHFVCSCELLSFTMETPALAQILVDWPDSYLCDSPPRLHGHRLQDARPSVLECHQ", "assay": "TLR multiplex sensor, EIS film resistance before/after exposure (Example 5), TLR2 sensor", "assay_type": "binding", "settings": "exposure 20 minutes", "description": "(§1) For each multiplex TLR sensor, 5 separate gold electrodes were used for binding TLR 1 to 5. The 5 modified electrodes/sensors were exposed to the analyte solution and evaluated one by one using potentiostats and electrochemical cells.\n(§2) The preparation of each TLR biosensor was evaluated using EIS. It is understood that cyclic voltammetry as well as electrochemical impedance microscopy can also be used for monitoring the modification. […] Ethanolamine was then applied to deactivate unreacted LPA. Due to dissociation of unspecific absorbed TLR, the Rct dropped slightly. Experimental curves were evaluated using a model to obtain the Rct values, which can be seen at FIG. 9. Measurements from at least triplicated samples prepared were used to obtain statistic information.\n(§3) The TLR1 sensor was exposed to an E. coli K12 whole-cell buffer solution for 20 minutes. The sensor was then removed, washed thoroughly and characterized in the electrochemical cell measuring the Rct again. The difference in Rct before and after exposure is the response triggered by the target. The same protocol was carried out for all remaining TLRs (TLRs 2-5) to obtain one set of pattern for E. coli K12 (FIGS. 10b to 10e). Multiple sets were investigated for statistical relevance. […]"}, "[2]": {"biological_target": "TLR5 (Mus musculus, UniProt Q9JLF7)", "sequence (Q9JLF7 27-859)": "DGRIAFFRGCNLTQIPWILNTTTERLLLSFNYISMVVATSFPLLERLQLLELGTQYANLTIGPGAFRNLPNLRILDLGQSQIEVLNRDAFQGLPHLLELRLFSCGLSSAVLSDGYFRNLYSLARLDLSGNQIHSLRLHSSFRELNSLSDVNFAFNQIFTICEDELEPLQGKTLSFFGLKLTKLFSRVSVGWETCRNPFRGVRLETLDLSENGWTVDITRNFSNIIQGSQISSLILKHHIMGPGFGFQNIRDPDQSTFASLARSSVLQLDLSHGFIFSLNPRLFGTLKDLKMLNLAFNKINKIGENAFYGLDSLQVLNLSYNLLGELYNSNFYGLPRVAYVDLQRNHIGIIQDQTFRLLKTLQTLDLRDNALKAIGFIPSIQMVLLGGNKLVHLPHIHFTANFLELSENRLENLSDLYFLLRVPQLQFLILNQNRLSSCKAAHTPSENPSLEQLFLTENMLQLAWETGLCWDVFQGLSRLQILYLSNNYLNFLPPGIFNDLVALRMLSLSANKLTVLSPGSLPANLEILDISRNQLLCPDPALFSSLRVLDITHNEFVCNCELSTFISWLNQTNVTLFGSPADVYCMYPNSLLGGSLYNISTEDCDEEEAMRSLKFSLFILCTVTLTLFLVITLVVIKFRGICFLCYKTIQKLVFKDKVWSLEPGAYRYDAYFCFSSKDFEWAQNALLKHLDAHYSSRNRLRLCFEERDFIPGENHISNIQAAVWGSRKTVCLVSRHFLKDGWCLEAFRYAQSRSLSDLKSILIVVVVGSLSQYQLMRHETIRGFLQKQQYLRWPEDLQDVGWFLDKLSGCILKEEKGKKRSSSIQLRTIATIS", "assay": "TLR multiplex sensor, EIS film resistance before/after exposure (Example 5), TLR5 sensor", "assay_type": "binding", "settings": "exposure 20 minutes", "description": "as §1, §2, §3"}}}
{"substance": "Pam3CSK4", "values": [{"measurement": "delta Rct %", "setting": "[1]", "value": 35, "unit": "%"}, {"measurement": "delta Rct %", "setting": "[2]", "value": "limited responses"}]}
